Test results reported in patent US11365196B2, “FGFR inhibitor and application thereof” (Betta Pharmaceuticals Co., Ltd., priority 2017, dated 2022).
Like-named read-outs stand apart in the source and are kept apart here.

How the values were obtained:
FGFR4 = FGFR4 (Homo sapiens (Human), UniProt P22455); assay: Kinase assay Method 1, mobility shift assay; type: biochemical; details: ATP at Km, numeric values, read-out: IC50(nM) value of compounds FGFR4
NCI-H1581 cells = assay: Cell proliferation assay on NCI-H1581 (Table 7); type: cell-based, human
Source text: (§1) Test method: adding the appropriate volume of whole medium and the cells was suspended.

SNU-16 cells = assay: Cell proliferation assay on SNU-16, CellTiter Glo (Table 8); type: cell-based, human; details: Homo sapiens, SNU-16, 96 hrs, class symbols, read-out: IC50(nM) value of compounds on SNU-16 cells
Source text: as §1

FGFR1 = FGFR1 (Homo sapiens (Human), UniProt P11362); assay: Kinase assay Method 1, mobility shift assay; details: read-out: IC50(nM) value of compounds FGFR1; mobility shift assay, ATP at Km; class symbols
Chain of FGFR1 (P11362 22-822): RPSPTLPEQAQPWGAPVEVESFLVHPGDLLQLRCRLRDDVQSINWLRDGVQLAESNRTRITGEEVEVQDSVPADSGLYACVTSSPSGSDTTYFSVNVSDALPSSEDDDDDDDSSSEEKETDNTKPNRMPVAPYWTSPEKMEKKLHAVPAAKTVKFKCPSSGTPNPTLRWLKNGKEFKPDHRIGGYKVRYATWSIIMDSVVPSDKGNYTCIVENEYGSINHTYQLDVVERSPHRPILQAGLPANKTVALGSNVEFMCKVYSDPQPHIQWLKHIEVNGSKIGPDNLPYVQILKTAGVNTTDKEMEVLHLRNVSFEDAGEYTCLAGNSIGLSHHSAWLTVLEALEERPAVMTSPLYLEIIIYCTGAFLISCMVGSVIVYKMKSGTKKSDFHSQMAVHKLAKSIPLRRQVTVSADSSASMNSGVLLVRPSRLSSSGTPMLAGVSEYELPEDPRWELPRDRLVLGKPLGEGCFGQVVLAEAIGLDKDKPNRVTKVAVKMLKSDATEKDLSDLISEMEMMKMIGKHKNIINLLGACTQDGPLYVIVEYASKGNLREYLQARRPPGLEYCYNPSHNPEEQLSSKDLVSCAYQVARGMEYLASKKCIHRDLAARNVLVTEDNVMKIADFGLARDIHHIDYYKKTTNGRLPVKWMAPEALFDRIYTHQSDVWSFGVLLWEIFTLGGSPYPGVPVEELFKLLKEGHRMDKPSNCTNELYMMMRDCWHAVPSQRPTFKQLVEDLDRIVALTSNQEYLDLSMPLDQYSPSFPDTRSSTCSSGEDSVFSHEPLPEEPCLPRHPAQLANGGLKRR
Method: Method 1: The inhibitory activity of some compounds of the present disclosure against FGFR1, FGFR2, FGFR3, FGFR4, KDR was tested by mobility shift assay (concentration of ATP is Km value).
Preparing of compounds: dilute test compounds to specific concentration using 100% DMSO

FGFR2 = FGFR2 (Homo sapiens (Human), UniProt P21802); assay: Kinase assay Method 1, mobility shift assay; type: biochemical; details: ATP at Km, read-out: IC50(nM) value of compounds FGFR2
Chain of FGFR2 (P21802 22-821): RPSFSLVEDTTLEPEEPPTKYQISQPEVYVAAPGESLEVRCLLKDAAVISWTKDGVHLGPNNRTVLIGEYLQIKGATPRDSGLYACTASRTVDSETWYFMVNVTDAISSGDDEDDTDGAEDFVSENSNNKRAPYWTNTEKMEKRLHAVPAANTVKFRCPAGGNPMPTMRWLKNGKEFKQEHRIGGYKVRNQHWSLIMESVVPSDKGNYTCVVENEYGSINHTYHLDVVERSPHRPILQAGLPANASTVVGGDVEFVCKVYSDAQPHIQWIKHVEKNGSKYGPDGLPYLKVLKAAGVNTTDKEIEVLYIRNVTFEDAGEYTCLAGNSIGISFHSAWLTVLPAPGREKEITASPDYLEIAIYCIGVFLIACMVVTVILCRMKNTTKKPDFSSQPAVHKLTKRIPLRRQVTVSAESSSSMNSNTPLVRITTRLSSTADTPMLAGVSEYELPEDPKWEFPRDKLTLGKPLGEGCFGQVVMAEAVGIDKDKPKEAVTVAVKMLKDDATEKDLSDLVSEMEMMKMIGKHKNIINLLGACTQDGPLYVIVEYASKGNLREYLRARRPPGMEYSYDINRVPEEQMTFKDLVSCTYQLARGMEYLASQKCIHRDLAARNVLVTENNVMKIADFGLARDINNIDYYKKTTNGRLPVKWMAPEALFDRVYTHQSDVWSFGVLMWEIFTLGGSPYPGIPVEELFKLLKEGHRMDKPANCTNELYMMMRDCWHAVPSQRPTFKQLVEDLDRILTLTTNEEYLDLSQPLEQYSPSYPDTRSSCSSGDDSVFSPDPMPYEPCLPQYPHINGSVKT

FGFR3 = FGFR3 (Homo sapiens (Human), UniProt P22607); assay: Kinase assay Method 1, mobility shift assay; type: biochemical; details: ATP at Km, read-out: IC50(nM) value of compounds FGFR3
Chain of FGFR3 (P22607 23-806): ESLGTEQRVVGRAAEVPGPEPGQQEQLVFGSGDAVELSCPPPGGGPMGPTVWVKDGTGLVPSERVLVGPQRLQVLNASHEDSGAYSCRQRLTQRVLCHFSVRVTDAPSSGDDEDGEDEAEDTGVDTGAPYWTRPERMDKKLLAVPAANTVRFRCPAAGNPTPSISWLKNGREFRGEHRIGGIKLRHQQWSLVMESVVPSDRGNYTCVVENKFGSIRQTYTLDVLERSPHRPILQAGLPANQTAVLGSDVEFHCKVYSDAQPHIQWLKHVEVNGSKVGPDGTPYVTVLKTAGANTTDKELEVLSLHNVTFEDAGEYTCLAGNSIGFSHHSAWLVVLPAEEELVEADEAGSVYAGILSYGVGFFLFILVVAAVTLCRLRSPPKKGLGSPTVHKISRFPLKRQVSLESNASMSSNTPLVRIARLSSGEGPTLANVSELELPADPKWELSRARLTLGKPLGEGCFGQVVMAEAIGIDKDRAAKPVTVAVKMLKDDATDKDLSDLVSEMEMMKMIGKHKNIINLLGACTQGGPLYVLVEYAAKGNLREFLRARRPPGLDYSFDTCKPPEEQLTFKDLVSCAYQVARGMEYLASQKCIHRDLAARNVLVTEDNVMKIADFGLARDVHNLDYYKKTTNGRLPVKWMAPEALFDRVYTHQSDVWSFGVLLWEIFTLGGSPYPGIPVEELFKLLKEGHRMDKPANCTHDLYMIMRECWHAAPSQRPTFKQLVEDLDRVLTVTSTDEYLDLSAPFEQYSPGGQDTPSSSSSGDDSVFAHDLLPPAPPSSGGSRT

[1] = Homo sapiens, NCI-H1581, read-out: IC50(nM) value of compounds on NCI-H1581 cells
[2] = Homo sapiens, NCI-H1581, CellTiter 96 AQueous (144 hrs) or CellTiter Glo (96 hrs), class symbols, read-out: IC50(nM) value of compounds on NCI-H1581 cells

Chain of FGFR4 (P22455 22-802): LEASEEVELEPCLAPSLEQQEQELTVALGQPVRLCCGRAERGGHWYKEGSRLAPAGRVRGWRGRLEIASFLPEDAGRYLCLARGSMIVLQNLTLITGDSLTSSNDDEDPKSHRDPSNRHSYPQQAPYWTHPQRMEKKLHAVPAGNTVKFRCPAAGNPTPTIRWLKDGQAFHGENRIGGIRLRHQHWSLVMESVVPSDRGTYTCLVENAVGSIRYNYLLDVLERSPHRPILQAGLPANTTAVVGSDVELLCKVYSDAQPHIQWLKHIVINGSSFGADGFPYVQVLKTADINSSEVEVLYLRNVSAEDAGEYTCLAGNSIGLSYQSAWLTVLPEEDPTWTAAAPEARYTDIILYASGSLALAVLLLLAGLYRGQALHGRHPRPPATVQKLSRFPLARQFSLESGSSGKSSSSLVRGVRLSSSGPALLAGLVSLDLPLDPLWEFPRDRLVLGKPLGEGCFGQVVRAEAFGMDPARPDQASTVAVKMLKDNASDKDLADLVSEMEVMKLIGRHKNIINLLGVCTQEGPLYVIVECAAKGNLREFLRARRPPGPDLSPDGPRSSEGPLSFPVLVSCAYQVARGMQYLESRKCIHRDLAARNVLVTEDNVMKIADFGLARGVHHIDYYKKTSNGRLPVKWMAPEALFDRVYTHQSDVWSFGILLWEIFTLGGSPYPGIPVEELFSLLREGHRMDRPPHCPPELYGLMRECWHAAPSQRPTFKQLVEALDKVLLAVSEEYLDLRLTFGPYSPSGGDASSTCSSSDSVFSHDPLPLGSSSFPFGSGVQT

| SMILES | IC50 (FGFR4) [nM] | IC50 (NCI-H1581 cells; [1]) [nM] | IC50 (SNU-16 cells) [nM] | further results |
| --- | --- | --- | --- | --- |
| Cc1nc2cc(Cl)c(-c3cc4cnc(Nc5ccc(N6CCC(N(C)C)CC6)cc5)nc4n4cnnc34)cc2[nH]1 [Compound 78, 6-(5-chloro-2-methyl-1H-benzo[d]imidazol-6-yl)-N-(4-(4-(dimethylamino)piperidin-1-yl)phenyl)-[1,2,4]triazolo[4′,3′:1,6]pyrido[2,3-d]pyrimidin-2-amine] | 600 | 5.3 |  |  |
| CNc1ncc2cc(-c3c(Cl)c(OC)cc(OC)c3Cl)c3nc(CCCN4CCN(C(=O)C(C#N)=CC(C)C)CC4)nn3c2n1 [Compound 147, 2-(4-(3-(4-(2,6-dichloro-3,5-dimethoxyphenyl)-8-(methylamino)-[1,2,4]triazolo[1′,5′:1,6]pyrido[2,3-d]pyrimidin-2-yl)propyl)piperazine-1-carbonyl)-4-methylpent-2-enenitrile] |  |  | 10 to 100 | IC50 (NCI-H1581 cells; [2]): 10 to 100 nM |
| CCN1CCN(Cc2ccc(Nc3ncc4cc(-c5cc(OC)cc(OC)c5Cl)c5nncn5c4n3)cn2)CC1 [Compound 111, 6-(2-chloro-3,5-dimethoxyphenyl)-N-(6-((4-ethylpiperazin-1-yl)methyl)pyridin-3-yl)-[1,2,4]triazolo[4′,3′:1,6]pyrido[2,3-d]pyrimidin-2-amine] | 288 | 8.2 |  |  |
| C=CC(=O)N1CCN(Cc2nc3c(-c4c(Cl)c(OC)cc(OC)c4Cl)cc4cnc(NC)nc4n3n2)CC1 [Compound 123, 1-(4-(2-(4-(2,6-dichloro-3,5-dimethoxyphenyl)-8-(methylamino)-[1,2,4]triazolo[1′,5′:1,6]pyrido[2,3-d]pyrimidin-2-yl)methyl)piperazin-1-yl)prop-2-en-1-one] | 730 | 5.8 |  |  |
| COc1cc(OC)c(Cl)c(-c2cc3cnc(Nc4ccc(N5CCC(N6CCOCC6)CC5)cc4)nc3n3cnnc23)c1 [Compound 29, 6-(2-chloro-3,5-dimethoxyphenyl)-N-(4-(4-morpholinopiperidin-1-yl)phenyl)-[1,2,4]triazolo[4′,3′:1,6]pyrido[2,3-d]pyrimidin-2-amine] |  | 2 | < 1 |  |
| COc1cc(OC)c(Cl)c(-c2cc3cnc(Nc4ccc(N5CCN6CCOC[C@H]6C5)cc4)nc3n3cnnc23)c1 [Compound 43, (R)-6-(2-chloro-3,5-dimethoxyphenyl)-N-(4-(hexahydropyrazino[2,1-c][1,4]oxazin-8(1H)-yl)phenyl)-[1,2,4]triazolo[4′,3′:1,6]pyrido[2,3-d]pyrimidin-2-amine] |  | 1 to 10 | < 1 |  |
| Cc1nc2cc(Cl)c(-c3cc4cnc(Nc5ccc(N6CCN7CCC[C@@H]7C6)cc5)nc4n4cnnc34)cc2[nH]1 [Compound 84] |  |  | 1 to 10 | IC50 (NCI-H1581 cells; [2]): 1 to 10 nM; IC50 (FGFR1): < 1 nM |
| COc1cc(OC)c(Cl)c(-c2cc3cnc(Nc4ccc(N5CCN6CCOC[C@@H]6C5)cc4)nc3n3cnnc23)c1 [Compound 42, (S)-6-(2-chloro-3,5-dimethoxyphenyl)-N-(4-(hexahydropyrazino[2,1-c][1,4]oxazin-8(1H)-yl)phenyl)-[1,2,4]triazolo[4′,3′:1,6]pyrido[2,3-d]pyrimidin-2-amine] |  | 3.2 | < 1 | IC50 (FGFR2): 1.3 nM; IC50 (FGFR3): 1.6 nM |
| COc1cc(OC)c(Cl)c(-c2cc3cnc(Nc4ccc(N5CC6CCC(C5)N6)cc4)nc3n3cnnc23)c1 [Compound 51, N-(4-(3,8-diazabicyclo[3.2.1]octan-3-yl)phenyl)-6-(2-chloro-3,5-dimethoxyphenyl)[1,2,4]triazolo[4′,3′:1,6]pyrido[2,3-d]pyrimidin-2-amine] | 42 | 1.4 |  |  |
| COc1cc(OC)c(Cl)c(-c2cc3cnc(Nc4ccc(N5C[C@@H](C)N[C@@H](C)C5)c(F)c4)nc3n3cnnc23)c1 [Compound 56, 6-(2-chloro-3,5-dimethoxyphenyl)-N-(4-((3S,5R)-3,5-dimethylpiperazin-1-yl)-3-fluorophenyl)-[1,2,4]triazolo[4′,3′:1,6]pyrido[2,3-d]pyrimidin-2-amine] | 51 | 1.2 |  |  |
| COc1cc(OC)c(Cl)c(-c2cc3cnc(Nc4ccc(CN5CCN(C)CC5)cc4)nc3n3cnnc23)c1 [Compound 46, 6-(2-chloro-3,5-dimethoxyphenyl)-N-(4-((4-methylpiperazin-1-yl)methyl)phenyl)-[1,2,4]triazolo[4′,3′:1,6]pyrido[2,3-d]pyrimidin-2-amine] | 56 | 2.4 |  |  |
| C=CC(=O)N1CCC2(CC1)CN(CCCc1nc3c(-c4c(Cl)c(OC)cc(OC)c4Cl)cc4cnc(NC)nc4n3n1)C2 [Compound 138, 1-(2-(3-(4-(2,6-dichloro-3,5-dimethoxyphenyl)-8-(methylamino)-[1,2,4]triazolo[1′,5′:1,6]pyrido[2,3-d]pyrimidin-2-yl)propyl)-2,7-diazaspiro[3.5]nonan-7-yl)prop-2-en-1-one] |  |  | 1 to 10 |  |
| COc1cc(OC)c(Cl)c(-c2cc3cnc(Nc4ccc(N5CCN6CCC[C@@H]6C5)cc4)nc3n3cnnc23)c1Cl [Compound 64, (R)-6-(2,6-dichloro-3,5-dimethoxyphenyl)-N-(4-(hexahydropyrrolo[1,2-a]pyrazin-2(1H)-yl)phenyl)-[1,2,4]triazolo[4′,3′:1,6]pyrido[2,3-d]pyrimidin-2-amine] | 14 | 0.5 | < 1 | IC50 (FGFR2): 2.7 nM; IC50 (FGFR3): 0.6 nM |
| COc1cc(OC)c(Cl)c(-c2cc3cnc(Nc4ccc(N5CCN6CCC[C@@H]6C5)cc4)nc3n3cnnc23)c1 [Compound 24, (R)-6-(2-chloro-3,5-dimethoxyphenyl)-N-(4-(hexahydropyrrolo[1,2-a]pyrazin-2(1H)-yl)phenyl)-[1,2,4]triazolo[4′,3′:1,6]pyrido[2,3-d]pyrimidin-2-amine] | 26 | 1.2 | < 1 | IC50 (FGFR2): 1.8 nM; IC50 (FGFR3): 0.8 nM |
| CCN1CCC(c2ccc(Nc3ncc4cc(-c5cc(OC)cc(OC)c5Cl)c5nncn5c4n3)cc2)CC1 [Compound 102, 6-(2-chloro-3,5-dimethoxyphenyl)-N-(4-(1-ethylpiperidin-4-yl)phenyl)-[1,2,4]triazolo[4′,3′:1,6]pyrido[2,3-d]pyrimidin-2-amine] | 60 | 0.7 |  |  |
| CCN1CCN(c2ccc(Nc3ncc4cc(-c5cc6[nH]c(C)nc6cc5Cl)c5nncn5c4n3)cc2)CC1 [Compound 67, 6-(5-chloro-2-methyl-1H-benzo[d]imidazol-6-yl)-N-(4-(4-ethylpiperazin-1-yl)phenyl)-[1,2,4]triazolo[4′,3′:1,6]pyrido[2,3-d]pyrimidin-2-amine] | 90 | 1 to 10 |  |  |
| COc1cc(OC)c(Cl)c(-c2cc3cnc(Nc4ccc(C5CCNCC5)cc4)nc3n3cnnc23)c1 [Compound 102-2] | 26 |  |  | IC50 (NCI-H1581 cells; read-out: IC50(nM) value of compounds on NCI-H1581 cells): 0.9 nM |
| COc1cc(OC)c(Cl)c(-c2cc3cnc(Nc4ccc5c(c4)CCNC5)nc3n3cnnc23)c1 [Compound 53, 6-(2-chloro-3,5-dimethoxyphenyl)-N-(1,2,3,4-tetrahydroisoquinolin-6-yl)-[1,2,4]triazolo[4′,3′:1,6]pyrido[2,3-d]pyrimidin-2-amine] | 14 | 0.7 |  |  |
| COc1cc(OC)c(Cl)c(-c2cc3cnc(Nc4ccc(N5CCC(N6CCOCC6)CC5)cc4)nc3n3cnnc23)c1Cl [Compound 65, 6-(2,6-dichloro-3,5-dimethoxyphenyl)-N-(4-(4-morpholinopiperidin-1-yl)phenyl)-[1,2,4]triazolo[4′,3′:1,6]pyrido[2,3-d]pyrimidin-2-amine] | 6.7 | 0.6 |  |  |
| Cc1nc2cc(Cl)c(-c3cc4cnc(Nc5ccc(N6CCOCC6)cc5)nc4n4cnnc34)cc2[nH]1 [Compound 81, 6-(5-chloro-2-methyl-1H-benzo[d]imidazol-6-yl)-N-(4-morpholinophenyl)-[1,2,4]triazolo[4′,3′:1,6]pyrido[2,3-d]pyrimidin-2-amine] | 191 | 9.3 |  |  |
| COc1cc(OC)c(Cl)c(-c2cc3cnc(Nc4ccc(N5C[C@@H](C)N[C@@H](C)C5)cc4)nc3n3cnnc23)c1 [Compound 50, 6-(2-chloro-3,5-dimethoxyphenyl)-N-(4-((3S,5R)-3,5-dimethylpiperazin-1-yl)phenyl)-[1,2,4]triazolo[4′,3′:1,6]pyrido[2,3-d]pyrimidin-2-amine] | 35 | 0.2 | < 1 |  |
